Tests used:
[1] = system: premature translation termination (luciferase reporter with premature stop codon); assay: Suppression assay in cells transiently transfected with stop codon luciferase plasmids; format: cell-based; conditions: cells transiently infected with pMLT49, pMLT54 or pMLT55h for 24 hours; 12 hour exposure; FIGS. 2A-C
Method: Cells, transiently infected with the indicated plasmids for 24 hours, were exposed to the indicated concentration of G418 (panel A, pMLT49; panel B, pMLT54; panel C, pMLT55h). Luciferase activity was measured after a 12 hour exposure.

[2] = system: premature translation termination and NMD (luciferase reporter with premature stop codon); assay: Cell-based assay, 293 cells stably transfected with pMLT55, luciferase activity; conditions: 12 hour exposure
Method: The indicated independent clones were exposed to the indicated concentrations of G418. Luciferase activity was measured after a 12 hour exposure.
The indicated cell numbers were plated per well of a 96 well plate. Cells were exposed to the indicated concentrations of G418. Luciferase activity was measured after a 12 hour exposure on a robotic 96 well plate reader. Gentamycin was also used to inhibit NMD and premature translation termination.
On day 1, clone 55–31, a 293 cell line stably transfected with pMLT 55 (see FIG. 1) was plated in 96 well plates in the morning in DMEM media with 10% fetal bovine serum. Approximately 80 plates are plated at 40,000 cells per well in 100 μL. The cells were incubated overnight at 37° C.
On day two, test compounds (1 μL of 1 mM stock solution in 100 μL DMSO; 10 μM final concentration) were added. G418 (1 mg/ml) was added to column 12 of each plate as a control. The plates were incubated at 37° C. for 12–16 hours.
On day three, luciferase substrate was added to the cells and the plates were read on a Torcon automated luciferase assay reader for 96 well plates (see, e.g., FIGS. 3–4). Luciferase substrate is commercially available, e.g., from Promega.

[3] = system: premature translation termination (stop codon-containing luciferase RNA); assay: Biochemical suppression assay using RRL (rabbit reticulocyte lysate) and luciferase RNA; conditions: WT or stop codon luciferase RNA, incubated 45 or 90 minutes, FIGS. 7A-B
Method: In vitro translation assays were performed in the presence of RRL, luciferase RNA (panel A, WT; panel B, stop codon) and the indicated concentrations of gentamycin. Reactions were incubated 45 or 90 minutes before luciferase activity was determined. WT and stop codon containing RNA are schematically shown. The reactions were performed in either a 96 or 384 well format. In vitro synthesized reporter RNA (see constructs in FIG. 5) was added to 15 μL of fully supplemented rabbit reticulocyte lysate according to standard methodology (prepared by the method of Jackson & Hunt, Methods in Enzymology 96:50–75 (1983). 0.5 to 1 μg of in vitro transcribed RNA was used per reaction. The reaction was mixed with 15 μL of a 2% DMSO solution containing 20 μM of test compound. The reaction was incubated for 90 minutes at 30° C. in a humidified incubator. Luciferase substrate was added and luciferase activity was read on a Torcon automated reader (see FIGS. 6–7).

[4] = system: premature stop codons in the dystrophin gene; conditions: mdx mouse, Barton-Davis et al. 1999; cited from earlier work

Question: What does the source list for `CN[C@@H]1[C@@H](O)[C@@H](O[C@@H]2[C@@H](O)[C@H](O[C@H]3O[C@H]([C@@H](C)O)[C@@H](O)[C@H](O)[C@H]3N)[C@@H](N)C[C@H]2N)OC[C@]1(C)O` [G418]?
Answer: G418-mediated suppression (luciferase activity) [1]: not cell line specific; G418-mediated suppression (luciferase activity), high throughput format ([2]; clone #31, 96 well plate, FIG. 4): suppression in a stably transfected 293 cell line (clone #31) in high throughput format; G418-mediated suppression (relative luciferase activity, fold activation) ([2]; independent clones of 293 cells stably transfected with pMLT55, FIGS. 3A-B): suppression in various clones of stably transfected 293 cells

Question: For gentamycin, which “Suppression by gentamycin (luciferase activity)” value [3] is on record?
Answer: Its value is “time dependent”.

Question: Which “Suppression of translational termination at premature stop codons” value [4] does the source give for gentamycin sulfate here?
Answer: The value was “found to suppress translational termination at premature stop codons in the dystrophin gene”.
